Data published in PubChem BioAssay (NCI).
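48-hour exposure; five concentrations; linearly interpolated endpoints. GI50 = concentration required for 50% inhibition of growth. TGI: total growth inhibition.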

Legend:
Assay in all cases: NCI-60 cell line screen, 48 h
SK-OV-3 ovarian = test system: SK-OV-3 ovarian
A549 NSCLC = test system: A549 NSCLC
M14 melanoma = test system: M14 melanoma
SNB-19 CNS = test system: SNB-19 CNS
K-562 leukemia = test system: K-562 leukemia
MOLT-4 leukemia = test system: MOLT-4 leukemia
HCT-15 colon = test system: HCT-15 colon
OVCAR-8 ovarian = test system: OVCAR-8 ovarian
IGROV1 ovarian = test system: IGROV1 ovarian
TK-10 renal = test system: TK-10 renal
786-0 renal = test system: 786-0 renal
HS 578T breast = test system: HS 578T breast

Row | Compound | GI50 (SK-OV-3 ovarian) [µM] | TGI (SK-OV-3 ovarian) [µM] | GI50 (A549 NSCLC) [µM] | TGI (A549 NSCLC) [µM] | TGI (M14 melanoma) [µM] | GI50 (SNB-19 CNS) [µM] | TGI (SNB-19 CNS) [µM] | GI50 (K-562 leukemia) [µM] | TGI (K-562 leukemia) [µM] | GI50 (MOLT-4 leukemia) [µM] | TGI (MOLT-4 leukemia) [µM] | TGI (HCT-15 colon) [µM] | TGI (OVCAR-8 ovarian) [µM] | TGI (IGROV1 ovarian) [µM] | GI50 (TK-10 renal) [µM] | TGI (TK-10 renal) [µM] | TGI (786-0 renal) [µM] | TGI (HS 578T breast) [µM]
1 | C=C1CCC2[C@@H](CCC3[C@]2(C)CCC[C@]3(C)C(=O)OC)C1CC=O (stereo partly drawn) | 21.4 | 37.7 | 21 | 42.5 | 30.6 | 18.2 | 33.1 | 8.65 | 26.6 | 11.2 | 29.8 | 43.6 | 37.3 | 38.6 | 13.2 | 26.6 | 33.1 | –
2 | CCC(=O)C(CCN1CCC2(CCCc3ccccc32)CC1)(c1ccccc1)c1ccccc1 | – | 18.2 | – | 15.6 | 4.56 | – | 20.6 | – | – | – | – | 15.1 | 14 | 10.3 | – | 11 | 6.09 | 7.02
3 | CC(C)(C)C1=CC(C)(n2[nH]c(=O)n(-c3ccccc3)c2=O)C=C(C(C)(C)C)C1=O | – | > 100 | – | > 100 | – | – | > 100 | – | > 100 | – | – | > 100 | > 100 | – | – | > 100 | > 100 | > 100
4 | CCN(CC)c1ccc2c(c1)Oc1ccc(N(CC)CC)cc1C21Oc2ccccc2-c2c1c1ccccc1n2CC (stereo not drawn) | – | > 100 | – | > 100 | > 100 | – | > 100 | – | > 100 | – | > 100 | > 100 | > 100 | – | – | – | > 100 | –
5 | C/C(=C\CBr)CCC(Br)C(C)(C)Cl (stereo not drawn) | – | > 100 | – | > 100 | > 100 | – | – | – | > 100 | – | > 100 | > 100 | > 100 | > 100 | – | > 100 | > 100 | –
6 | CN(C)C(=NCc1ccccc1)NC#N | – | > 100 | – | > 100 | > 100 | – | > 100 | – | – | – | – | > 100 | > 100 | > 100 | – | > 100 | > 100 | –
7 | CCc1c(C)c(C#N)c(=S)n(C2OC(COC(C)=O)C(OC(C)=O)C(OC(C)=O)C2OC(C)=O)c1-c1ccccc1 (stereo not drawn) | – | – | – | > 31.6 | > 31.6 | – | – | – | 47.2 | – | > 31.6 | > 31.6 | > 31.6 | > 31.6 | – | > 31.6 | > 31.6 | 68.2
8 | O=[N+]([O-])c1ccc(-c2nc3ccc(Cl)cc3[nH]2)cc1 | – | > 100 | – | > 100 | > 100 | – | > 100 | – | – | – | > 100 | > 100 | > 100 | > 100 | – | > 100 | > 100 | > 100
9 | CCOC(=O)/C(C#N)=C(O)/C(=C\c1ccc(Br)cc1)NC(=O)c1ccccc1 | – | > 100 | – | > 100 | > 100 | – | > 100 | – | > 100 | – | > 100 | > 100 | > 100 | > 100 | – | > 100 | > 100 | –
10 | COc1ccc(/C=N/n2c(C)n[nH]c2=O)c(OC)c1 | – | > 100 | – | > 100 | > 100 | – | > 100 | – | > 100 | – | > 100 | > 100 | > 100 | – | – | – | > 100 | 9.01
11 | CC1(C)OCC([C@H]2O[C@@H](CC(=S)NCCCCCCCCCCCCNC(=S)C[C@H]3O[C@@H](C4COC(C)(C)O4)[C@H]4OC(C)(C)O[C@H]43)[C@H]3OC(C)(C)O[C@H]32)O1 (stereo partly drawn) | – | – | – | > 100 | > 100 | – | – | – | > 100 | – | 80.2 | > 100 | > 100 | > 100 | – | > 100 | > 100 | > 100
12 | CC1=NN(c2nc(N)nc(/C(C#N)=C\c3csc([N+](=O)[O-])c3)n2)C(C)(C)C1 | – | > 100 | – | – | > 100 | – | – | – | > 100 | – | > 100 | > 100 | 64.7 | > 100 | – | 95.5 | 32.2 | 54.9
13 | Cc1nc2ccc(C(F)(F)F)cc2nc1NCc1ccc(Cl)c(Cl)c1 | – | – | – | 30.6 | – | – | 36.6 | – | 42.2 | – | 35.8 | 25.3 | 33.2 | 31.3 | – | 21.2 | 30.3 | 45.5
14 | CCOC(=O)CNC(=O)C(CSC(=O)N(O)c1ccc(Cl)cc1)NC(=O)CCC(N)C(=O)OCC (stereo not drawn) | – | > 50 | – | > 50 | > 50 | – | > 50 | – | > 50 | – | > 50 | > 50 | > 50 | > 50 | – | – | > 50 | > 50
15 | O=C1Cc2c([nH]c3ccc(Br)cc23)-c2cc(O)c(O)cc2N1 | – | > 100 | – | > 100 | > 100 | – | > 100 | – | > 100 | – | > 100 | > 100 | > 100 | – | – | > 100 | > 100 | > 100
16 | O=c1[nH]c(=S)nc2nc3c4ccc[nH]c4c4ccccc4c3nc12 | – | > 100 | – | > 100 | > 100 | – | > 100 | – | – | – | > 100 | > 100 | > 100 | > 100 | – | > 100 | > 100 | > 100
17 | CCCCCCCC1(N=[N+]=[N-])C(=O)Nc2ccccc2C1=O (stereo not drawn) | – | 30.4 | – | 28 | 33.2 | – | 32.4 | – | 61.3 | – | 35.2 | 47.3 | – | 25.6 | – | 31 | 32 | 42
18 | CCOP1(=O)C=C(C)C(Cl)=C(C)C1 (stereo not drawn) | – | > 100 | – | 65 | 70.9 | – | > 100 | – | 90.5 | – | 76.1 | 73.7 | > 100 | > 100 | – | 96.7 | 83 | –
19 | CC(=O)C1=CN=C2C(=O)N(c3ccccc3)N(C)C12C (stereo not drawn) | – | > 100 | – | > 100 | > 100 | – | > 100 | – | > 100 | – | > 100 | > 100 | > 100 | > 100 | – | > 100 | > 100 | –
20 | COC(=O)[C@@]1(C(C)CC(=O)O)CCCCC1=O (stereo partly drawn) | – | > 100 | – | > 100 | > 100 | – | > 100 | – | > 100 | – | > 100 | > 100 | > 100 | > 100 | – | > 100 | > 100 | –
